Reference: patent US7465715B2, “Method for treatment of multiple sclerosis” (Can-Fite Biopharma, Ltd., priority 2003, dated 2008)

Key:
[1] = target: T1, A1 receptor (Rattus norvegicus, UniProt P25099); details: cited from earlier work
T1 sequence (P25099 1-326): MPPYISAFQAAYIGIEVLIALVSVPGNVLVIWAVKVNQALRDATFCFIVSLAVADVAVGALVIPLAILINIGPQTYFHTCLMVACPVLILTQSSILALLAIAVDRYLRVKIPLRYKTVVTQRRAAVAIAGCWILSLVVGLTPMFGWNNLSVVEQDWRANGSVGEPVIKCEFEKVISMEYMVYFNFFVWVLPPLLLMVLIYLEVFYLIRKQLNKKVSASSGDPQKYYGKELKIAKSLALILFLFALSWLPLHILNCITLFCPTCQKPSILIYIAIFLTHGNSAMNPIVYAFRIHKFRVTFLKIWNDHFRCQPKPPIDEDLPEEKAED

[2] = system: multiple sclerosis; details: patients having MS; cited from earlier work
[3] = system: EAE; assay: Experimental autoimmune encephalomyelitis (EAE) induced with MBP in Lewis rats, clinical score; format: in vivo, female Lewis rats

| Structure (SMILES) | functional character at A1 receptors [1] | effect on the disease condition of MS patients [2] | difference in the maximal clinical score between treated and control groups ([3]; 10 μg/kg PO BID from day 7, P<0.01, Student's t test) | severity of the disease in the treated group ([3]; 10 μg/kg PO BID from day 7 after disease induction) | clinical score in comparison to the control group ([3]; 10 μg/kg PO BID from day 7 after disease induction, score 0-5) |
| --- | --- | --- | --- | --- | --- |
| Nc1nc(Cl)nc2c1ncn2[C@H]1C[C@H](O)[C@@H](CO)O1 [CdA, 2-chloro-2′-deoxyadenosine] | putative partial agonist | markedly ameliorate the disease condition |  |  |  |
| CNC(=O)[C@H]1O[C@@H](n2cnc3c(NCc4cccc(I)c4)ncnc32)[C@H](O)[C@@H]1O [CF101, N^6-(3-iodobenzyl)-adenosine-5′-N-methyluronamide] |  |  | significant | significantly reduced | remarkably low clinical score |
